TGI and GI50 data for 15 compounds are collected here from PubChem BioAssay (NCI).

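96-well plates; 48 h exposure; 5 concentrations. Endpoints by linear interpolation between flanking doses. Not reached: highest tested concentration assigned. GI50 = concentration required for 50% inhibition of growth. TGI: total growth inhibition.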

Among the test systems are BT-549 breast; NCI/ADR-RES ovarian; MCF7 breast; PC-3 prostate; MDA-MB-435; MDA-N.
Common to all, as to assay: NCI tumour cell line growth inhibition, 48 h

Consider `Nc1ccc(S(=O)(=O)NCc2nccs2)cc1`, for which the TGI in the test with BT-549 breast was 45.3 µM; in the test on NCI/ADR-RES ovarian it was 62.7 µM; with MCF7 breast, 61.4 µM; in the test with PC-3 prostate, more than 100 µM; in the test with MDA-MB-435, 38.8 µM; in the test with MDA-N, 54.1 µM.

For `COc1ccc(Cn2c(Cl)c(/C=C3/C(=O)Nc4ccccc43)c3cc(OC)c(C)cc32)cc1`, the GI50 is 17.2 µM with BT-549 breast; 2 µM with NCI/ADR-RES ovarian; 5.87 µM with MCF7 breast; 6.22 µM in the test with PC-3 prostate; 2.06 µM in the test with MDA-MB-435. In addition, the TGI is more than 100 µM with BT-549 breast; 4.77 µM in the test with NCI/ADR-RES ovarian; more than 100 µM in the test on MCF7 breast; more than 100 µM in the test with PC-3 prostate; 6.08 µM in the test with MDA-MB-435.

For the compound `FCc1ncc(-c2ccc(C(F)(F)F)cc2)c(NC2CCCCCC2)n1`, the GI50 in the test with BT-549 breast, with NCI/ADR-RES ovarian, with MCF7 breast, in the test on PC-3 prostate and with MDA-MB-435 was more than 10 µM each time. Besides, the TGI in the test on BT-549 breast, with NCI/ADR-RES ovarian, in the test on MCF7 breast, in the test with PC-3 prostate and with MDA-MB-435 was more than 10 µM throughout.

Take `CCN(CC)CCCC(C)Nc1c2ccc(C)cc2nc2ccc(OC)cc12` (stereo not given): the GI50 in the test with BT-549 breast was 10.7 µM; with NCI/ADR-RES ovarian, 4.03 µM; in the test on MCF7 breast, 0.837 µM; in the test on PC-3 prostate it was 1.94 µM; in the test on MDA-MB-435, 1.6 µM. The TGI in the test on BT-549 breast was determined as 27.3 µM; in the test with NCI/ADR-RES ovarian, 22.7 µM; in the test on MCF7 breast, 11.1 µM; in the test on PC-3 prostate, 10.8 µM; with MDA-MB-435, 3.38 µM.

Consider `COC(=O)CCC1=C(C)/C(=C/c2[nH]c(-c3ccc[nH]3)cc2OC)N=C1C`, for which the GI50 in the test on BT-549 breast is 0.493 µM; in the test with NCI/ADR-RES ovarian, 0.434 µM; with MCF7 breast it was 0.331 µM; in the test with PC-3 prostate it was 0.564 µM; in the test on MDA-MB-435, 0.454 µM. Further, the TGI with BT-549 breast was 5.45 µM; in the test with NCI/ADR-RES ovarian, 12.3 µM; in the test with MCF7 breast, 1.43 µM; with PC-3 prostate, 12 µM; in the test on MDA-MB-435 it was 2.5 µM.

For the compound `COc1ccc(Cl)cc1Nc1nc(C(F)(F)F)ccc1C(=O)N/N=C/c1cc(OC)c(OC)c(OC)c1`, the GI50 in the test with BT-549 breast is 1.2 µM; in the test on NCI/ADR-RES ovarian, 3.35 µM; with MCF7 breast, 1.52 µM; with PC-3 prostate, 2.4 µM; with MDA-MB-435, 2.41 µM. Further, the TGI with BT-549 breast worked out at 3.68 µM; with NCI/ADR-RES ovarian it was 21.6 µM; in the test on MCF7 breast, 7.46 µM; with PC-3 prostate it was 17.4 µM; in the test with MDA-MB-435, 7.72 µM.

As to `CSc1ccc(/C=C2\C=C(CC(=O)NCc3ccc(C(=O)c4ccccc4)cc3)c3cc(F)ccc32)cc1`, the GI50 with BT-549 breast is 1.43 µM; with NCI/ADR-RES ovarian it was 0.0328 µM; in the test on PC-3 prostate, 0.0473 µM; in the test on MDA-MB-435 it was less than 0.0112 µM. Besides, the TGI in the test on BT-549 breast came to 21.9 µM; with NCI/ADR-RES ovarian, 0.187 µM; in the test with MCF7 breast, 12.2 µM; with PC-3 prostate, 13.1 µM; with MDA-MB-435, 0.0515 µM.

`CCC(c1cccc(O)c1)C(CC)c1cccc(O)c1` (stereo not given): the GI50 with BT-549 breast was 1.09 µM; with NCI/ADR-RES ovarian, 3.53 µM; in the test on MCF7 breast, 1.62 µM; in the test on PC-3 prostate, 2.28 µM; in the test with MDA-MB-435, 2.15 µM. For the same compound, the TGI with BT-549 breast amounted to 14.3 µM; with NCI/ADR-RES ovarian, 14.1 µM; in the test on MCF7 breast, 8.04 µM; in the test with PC-3 prostate, 12.5 µM; in the test on MDA-MB-435, 6.44 µM.

As to `COc1cc(Cn2c(-c3nonc3N)nc3ccccc32)ccc1C`, the GI50 was 0.463 µM with BT-549 breast; 0.362 µM in the test with NCI/ADR-RES ovarian; 0.348 µM in the test with MCF7 breast; 0.399 µM in the test on PC-3 prostate; 0.168 µM in the test with MDA-MB-435. Further, the TGI in the test with BT-549 breast is 49.4 µM; in the test on NCI/ADR-RES ovarian, more than 37.4 µM; in the test with MCF7 breast, more than 100 µM; with PC-3 prostate, more than 100 µM; with MDA-MB-435 it was 0.642 µM.

In the case of `Cn1cc(CNCC2CCN(c3ncc(C(=O)NO)cn3)CC2)c2ccccc21`, the GI50 in the test with BT-549 breast was 0.225 µM; with NCI/ADR-RES ovarian, 0.107 µM; in the test on MCF7 breast, less than 0.01 µM; with PC-3 prostate, 0.012 µM; in the test on MDA-MB-435 it was 0.012 µM. In addition, the TGI with BT-549 breast amounted to 14.3 µM; with NCI/ADR-RES ovarian it was 5.59 µM; in the test with MCF7 breast, 2.53 µM; in the test with PC-3 prostate it was 18 µM; in the test on MDA-MB-435, 0.123 µM.

Consider `COC1CC(OC(=O)c2ccccc2)C(OC(=O)c2ccccc2)C(C)O1` (stereo not given), for which the TGI in the test with NCI/ADR-RES ovarian, with MCF7 breast, with PC-3 prostate, with MDA-MB-435 and in the test on MDA-N was more than 100 µM throughout.

As for `Cc1cc(-c2nnc3n2CCCCC3)c(C)n1-c1ccc(Cl)c(Cl)c1`, the GI50 in the test on BT-549 breast is 7.1 µM; with NCI/ADR-RES ovarian, 11.9 µM; in the test on MCF7 breast, 4.89 µM; with PC-3 prostate it was 11 µM; in the test with MDA-MB-435, 10.3 µM. The TGI amounted to 20.3 µM in the test on BT-549 breast; 47.8 µM with NCI/ADR-RES ovarian; 20.2 µM with MCF7 breast; 57.1 µM in the test with PC-3 prostate; 26.9 µM in the test on MDA-MB-435.

As to `CCOC(=O)C(/C=N\C(=S)Nc1ccc(OCC)cc1)=C(/O)c1ccccc1`, the TGI in the test on NCI/ADR-RES ovarian, with MCF7 breast, in the test on PC-3 prostate, with MDA-MB-435 and in the test on MDA-N was more than 100 µM each time.

For `Cc1cc(N/N=C/c2nc(-c3ccc(Cl)cc3)oc2C)c2cc(Cl)ccc2n1`, the GI50 was 8.61 µM in the test on BT-549 breast; 2.19 µM in the test on NCI/ADR-RES ovarian; 1.35 µM in the test with MCF7 breast; 2.1 µM in the test on PC-3 prostate; 1.68 µM in the test with MDA-MB-435. For the same compound, the TGI was 21.1 µM with BT-549 breast; 5.63 µM with NCI/ADR-RES ovarian; 2.97 µM in the test on MCF7 breast; 4.81 µM in the test on PC-3 prostate; 3.44 µM with MDA-MB-435.

As for `COc1ccc(-c2cn[nH]c2-c2cc(OC)c3c(c2)OCCO3)cc1`, the GI50 in the test with BT-549 breast was 0.494 µM; in the test with NCI/ADR-RES ovarian, 0.0549 µM; in the test on MCF7 breast, 0.061 µM; in the test on PC-3 prostate, 0.128 µM; with MDA-MB-435 it was 0.0266 µM. Besides, the TGI in the test with BT-549 breast came out at 22 µM; in the test on NCI/ADR-RES ovarian, 41.5 µM; with MCF7 breast, 32.6 µM; with PC-3 prostate, 39 µM; in the test with MDA-MB-435, 0.0977 µM.
